# Source: patent US6506607B1, “Methods and compositions for the identification and assessment of prostate cancer therapies and the diagnosis of prostate cancer” (Millennium Pharmaceuticals, Inc., priority 1997, dated 2003)
# System: LNCaP cells
# Description: After 25 hours of incubation in testosterone-containing medium, the cells were detached from the flasks with trypsin and pelleted. Five T162 flasks of pretreated cells were used as a control. Untreated cells were collected in the same manner.
# Total RNA was prepared from the cell pellets using the RNeasy protocol (Qiagen).
# The PCR products representing partial cDNAs of putatively differentially expressed mRNAs were subcloned into pCR2.1 (InVitrogen) and transformed into INValphaF^1 cells.
# The differentially expressed genes were then identified by screening on a Gene Expression Micro-Array™ (Synteni, Inc.; Fremont, Calif.).
# In some cases only a partial sequence is presented in the corresponding figure. The various methods described herein can employ complete sequences or fragments thereof.
structure (smiles),measurement,value
C[C@]12CC[C@H]3[C@@H](CCC4=CC(=O)CC[C@@]43C)[C@@H]1CC[C@@H]2O [testosterone],Fold Increase In mRNA: 54 kDa progesterone receptor-associated immunophilin FKBP54,2.5
same,Fold Increase In mRNA: Ankyrin G (ANK-3) (U13616),2.7
same,Fold Increase In mRNA: Aryl hydrocarbon receptor nuclear translocator,4.6
same,Fold Increase In mRNA: BM28 mRNA/DNA replication licensing factor (huMCM2),2.4
same,Fold Increase In mRNA: Cell division protein kinase 6,3.1
same,Fold Increase In mRNA: Cytochrome b5,3.3
same,Fold Increase In mRNA: ESTs {23605},2.5
same,Fold Increase In mRNA: ESTs {26259},5
same,Fold Increase In mRNA: ESTs {32161},2.5
same,Fold Increase In mRNA: ESTs {41700},4
same,Fold Increase In mRNA: ESTs {46287},3
same,Fold Increase In mRNA: ESTs {48537},4.5
same,Fold Increase In mRNA: ESTs {51591},2.3
same,Fold Increase In mRNA: ESTs {52371},2.6
same,Fold Increase In mRNA: ESTs {128055},2.8
same,Fold Increase In mRNA: ESTs {128990},5
same,Fold Increase In mRNA: ESTs {131591},2.3
same,Fold Increase In mRNA: ESTs {135326},3.4
same,Fold Increase In mRNA: ESTs {141115},2.3
same,Fold Increase In mRNA: ESTs {151339},2.4
same,Fold Increase In mRNA: ESTs {174787},2.4
same,Fold Increase In mRNA: ESTs {177150},3.1
same,Fold Increase In mRNA: ESTs {180082},2.1
same,Fold Increase In mRNA: ESTs {195079},4.3
same,Fold Increase In mRNA: ESTs {221118},4.4
same,Fold Increase In mRNA: ESTs {230447},2.4
same,Fold Increase In mRNA: ESTs {242643},4.1
same,Fold Increase In mRNA: ESTs {249347},3.5
same,Fold Increase In mRNA: ESTs {264293},3
same,Fold Increase In mRNA: ESTs {297463},2.3
same,Fold Increase In mRNA: ESTs {301487},3.8
same,Fold Increase In mRNA: ESTs {344156},5.9
same,Fold Increase In mRNA: ESTs {364477},2.5
same,Fold Increase In mRNA: ESTs {364618},2.7
same,Fold Increase In mRNA: ESTs {375900},3.1
same,Fold Increase In mRNA: ESTs {415795},2.8
same,Fold Increase In mRNA: ESTs {429349},3
same,Fold Increase In mRNA: ESTs {469725},3.7
same,Fold Increase In mRNA: ESTs {471083},2.6
same,Fold Increase In mRNA: ESTs {488092},2.5
same,Fold Increase In mRNA: EXT1 = putative tumor suppressor/hereditary mult. exostoses candidate gene,2.4
same,Fold Increase In mRNA: Eukaryotic initiation factor 1A,2.4
same,"Fold Increase In mRNA: Fibronectin (S00848, transformation-associated human fragment)",2.8
same,Fold Increase In mRNA: Gelsolin precursor,2.8
same,Fold Increase In mRNA: Guanine nucleotide exchange factor MSS4 (U74324) (−76 nucleotide),2.7
same,Fold Increase In mRNA: HEK2 protein tyrosine kinase receptor,2.6
same,Fold Increase In mRNA: High mobility group protein HMG1 (X12597),2.6
same,Fold Increase In mRNA: Histone H2AZ,2.5
same,Fold Increase In mRNA: Immunoglobulin rearranged H-chain V-region (C-D-J Hg),3.6
same,Fold Increase In mRNA: KIAA0018 gene (D13643),3.3
same,Fold Increase In mRNA: Kinesin-related protein,4.8
same,"Fold Increase In mRNA: L-lactate dehydrogenase M chain (X02152, M17516)",3
same,Fold Increase In mRNA: Monoamine oxidase,5.5
same,Fold Increase In mRNA: Myeloblast KIAA0130 gene (D50920),3.3
same,Fold Increase In mRNA: Neprilysin,2.8
same,Fold Increase In mRNA: Phospholipase A2 (M22430),2.7
same,Fold Increase In mRNA: Pyruvate kinase (M26252) = human TCB gene encoding cytosolic thyroid hormone-binding protein,2.3
same,Fold Increase In mRNA: Ras-like GTP-binding protein RAN,2.6
same,Fold Increase In mRNA: S-adenosylmethionine decarboxylase,2.3
same,Fold Increase In mRNA: S-adenosylmethionine decarboxylase proenzyme (M21154),2.5
same,Fold Increase In mRNA: STS (WI 12919),7.7
same,Fold Increase In mRNA: STS (WI-8530),5
same,Fold Increase In mRNA: Simian T-cell lymphotropic virus type I DNA for tax/rex region,2.3
same,Fold Increase In mRNA: Spectrin alpha chain,3.5
same,Fold Increase In mRNA: Thyroid receptor interactor (TRIP7) (L40357) (−92 nucleotide),2.4
same,Fold Increase In mRNA: Tubulin beta 1 chain,2.8
same,Fold Increase In mRNA: UDP glucuronosyltransferase precursor (UGT2B15),2.8
same,Fold Increase In mRNA: UDP-glucuronosyltransferase 2B7 precursor,3.9
same,Fold Increase In mRNA: Vacuolar ATP synthase subunit AC39; or bovine (P17694) NADH-ubiquinone oxidoreductase 49 kD subunit,3.1
same,Fold Increase In mRNA: Yeast guanine nucleotide-binding protein beta subunit-like protein,2.4
same,Fold Increase In mRNA: p0071 protein (X81889),2.4
